Literature values in patent publication US20250288728A1, “SYSTEMS AND METHODS FOR GEL-BASED NEUROMODULATION” (Tulavi Therapeutics, Inc., priority 2018, published 2025).

Tests used:
sympathetic ganglia = conditions: in vitro; 4 μg/ml (10 uM); within 36 hours
[1] = system: TRPV1 expressing cardiac nerve endings; conditions: 50 μg/ml RTX (10% ethanol in 10% Tween 80/isotonic saline) painted twice on right and left ventricles

Molecule | sympathetic ganglia cell death (sympathetic ganglia) | duration of complete ablation of TRPV1 expressing cardiac nerve endings [1]
Cholesterol oxides | rapid cell sympathetic ganglia cell death | 
C=C(C)[C@]12C[C@@H](C)[C@@]34O[C@](Cc5ccccc5)(O[C@@H]1[C@@H]3C=C(COC(=O)Cc1ccc(O)c(OC)c1)C[C@]1(O)C(=O)C(C)=C[C@@H]41)O2 [RTX, resiniferatoxin] |  | over 10 weeks
